Assay results as given in patent publication US7473694B2, “Pyrazolopyrimidine derivatives or pharmaceutically acceptable salts thereof” (Teijin Pharma Limited, priority 2005, dated 2009).

Biological target: recombinant human MAPKAP-K2 (Homo sapiens, UniProt P49137)
Assay: Inhibition of MAPKAP-K2 enzyme activity (33P-ATP peptide substrate phosphorylation)
Type: biochemical
Settings: recombinant human MAPKAP-K2 10 mU, room temperature 30 min, peptide substrate Lys-Lys-Leu-Asn-Arg-Thr-Leu-Ser-Val-Ala; read-out: Activity strength (IC50 against MAPKAP-K2)
Procedure: General Measurement Method for Determining Inhibition of MAPKAP-K2 Enzyme Activity
(Preparation of Solutions of Compounds)
Each compound was dissolved to DMSO to prepare a solution with a concentration of 20 mmol/L and this solution was stored at −20° C. This stock solution was diluted with DMSO successively to prepare solutions with 200-fold concentrations of a necessary range. These solutions were further diluted with water at a ratio of 1:20 to prepare solutions with 10-fold concentrations of a necessary range. Each of these solutions (5 μL) was used for each reaction in 50 μL-scale. Through the dilution series of all compounds, the final DMSO concentration was kept at 0.5%. Conventional tests for the compounds were carried out at a final concentration ranging from 100 μmol/L to 0.03 μmol/L, but in some cases, tests were carried out at lower concentrations, depending on activity.
(Measurements of MAPKAP-K2 Enzyme Activity)
To a DMSO solution (5 μL) containing a test compound at 5%, a solution (25 μL) containing a peptide substrate [peptide substrate […], ATP 20 μmol/L, Tris buffer 60 mmol/L (pH 7.5), EGTA 0.2 mmol/L, β-mercaptoethanol 0.2%, magnesium acetate 20 mmol/L, [γ-33P]ATP 0.1 μCi (specific radioactivity ca. 110 TBq/mmol)] was added. The reaction was initiated by further adding a solution (20 μL) containing MAPKAP-K2 enzyme [recombinant human MAPKAP-K2 10 mU, Tris buffer 50 mmol/L (pH 7.5), EGTA 0.1 mmol/L, β-mercaptoethanol 0.1%, BSA 0.1%]. After the reaction was carried out at room temperature for 30 min, 200 mmol/L phosphoric acid (50 μL) was added to quench the reaction, and 90 μL of the reaction mixture was adsorbed on a multiscreen PH plate (Millipore). The plate was washed with 100 mmol/L phosphoric acid. After the plate was dried, 30 μL of MicroScint™-O (Perkin-Elmer) was added here, and the radioactivity (cpm) was measured on a scintillation counter to determine the inhibitory activity. The peptide substrate was Lys-Lys-Leu-Asn-Arg-Thr-Leu-Ser-Val-Ala.
(Note) % Reference=(X−B)/(Tot−B)×100 % Inhibition=100%−% Reference • X=count per minute of the well with a test compound • B=count per minute of the well without the enzyme • Tot=count per minute of the well with only DMSO solvent and without a test compound (Calculation of MAPKAP-K2 Inhibitory Activity) • IC50 value=a concentration of compound at which 50% inhibition is observed • The efficacy of each compound in Tables A to G against MAPKAP-K2 is listed in the following Table J.

Chain of recombinant human MAPKAP-K2 (P49137 whole entry): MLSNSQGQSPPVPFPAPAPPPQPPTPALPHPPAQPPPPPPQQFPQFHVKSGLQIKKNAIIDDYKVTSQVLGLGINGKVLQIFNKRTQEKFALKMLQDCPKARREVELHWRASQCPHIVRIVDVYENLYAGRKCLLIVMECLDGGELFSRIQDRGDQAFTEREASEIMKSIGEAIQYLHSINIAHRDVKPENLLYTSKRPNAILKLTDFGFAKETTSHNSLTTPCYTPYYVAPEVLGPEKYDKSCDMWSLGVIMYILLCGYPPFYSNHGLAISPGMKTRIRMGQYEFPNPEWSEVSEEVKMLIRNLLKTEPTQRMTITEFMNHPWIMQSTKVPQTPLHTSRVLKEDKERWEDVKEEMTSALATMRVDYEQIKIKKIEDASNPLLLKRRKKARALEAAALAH

Row | Structure (SMILES) | IC50 [µM]
1 | CCOc1ccc(Nc2c3c(nc4ccnn24)N([C@H]2CC[C@H](N)CC2)CC3)cc1 [A-002] | < 10
2 | CCOc1ccc(Nc2c3c(nc4c(F)cnn24)N([C@H]2CCCNC2)CC3)cc1 [A-018, (S)-(4-Ethoxyphenyl)(3-fluoro-5-piperidin-3-yl-6,7-dihydro-5H-1,4,5,8a-tetraaza-s-indacen-8-yl)amine] | < 10
3 | CCOc1ccc(Nc2c3c(nc4ccnn24)N([C@@H]2CCCC[C@@H]2N)CCC3)cc1 [B-003] | 10 to 50
4 | CCOc1ccc(Nc2c3c(nc4c(F)c(F)nn24)N([C@H]2CCCNC2)CC3)cc1 [A-019, (S)-(2,3-Difluoro-5-piperidin-3-yl-6,7-dihydro-5H-1,4,5,8a-tetraaza-s-indacen-8-yl)(4-ethoxyphenyl)amine] | 10 to 50
5 | COCCOc1ccc(Nc2c3c(nc4ccnn24)N([C@H]2CCCNC2)CC3)cc1 [A-023, (S)-[4-(2-methoxyethoxy)phenyl](5-piperidin-3-yl-6,7-dihydro-5H-1,4,5,8a-tetraaza-s-indacen-8-yl)amine] | < 10
6 | c1coc(Nc2c3c(nc4ccnn24)N([C@H]2CCCNC2)CC3)c1 [A-095, (S)-furan-2-yl-(5-piperidin-3-yl-6,7-dihydro-5H-1,4,5,8a-tetraaza-s-indacen-8-yl)amine] | < 10
7 | CCOc1ccc(Nc2c3c(nc4ccnn24)N([C@H]2CCCNC2)CC3)cc1 [A-008, (S)-(4-ethoxyphenyl)(5-piperidin-3-yl-6,7-dihydro-5H-1,4,5,8a-tetraaza-s-indacen-8-yl)amine] | < 10
8 | CCOc1ccc(Nc2c3c(nc4ccnn24)N([C@H]2CCCNC2)CCCC3)cc1 [C-001, (S)-(4-ethoxyphenyl)(5-piperidin-3-yl-6,7,8,9-tetrahydro-5H-1,4,5,10a-tetraazacyclohepta[f]inden-10-yl)amine] | < 10
9 | CCOc1ccc(Nc2c3c(nc4ccnn24)N([C@H]2CCCC[C@@H]2N)CC3)cc1 [A-004] | 50 to 100
10 | Cc1nc2ccc(Nc3c4c(nc5ccnn35)N([C@H]3CCCNC3)CC4)cc2s1 [A-022, (S)-(2-methylbenzothiazol-6-yl)(5-piperidin-3-yl-6,7-dihydro-5H-1,4,5,8a-tetraaza-s-indacen-8-yl)amine] | < 10
11 | CCOc1ccc(Nc2c3c(nc4ccnn24)N(O)CC3)cc1 [A-020, 8-(4-ethoxyphenylamino)-6,7-dihydro-1,4,5,8a-tetraaza-s-indacen-5-ol] | < 10
12 | CCOc1ccc(Nc2c3cc(CO)n([C@H]4CCCNC4)c3nc3ccnn23)cc1 [F-002] | 10 to 50
13 | c1cc2nc3c(c(Nc4ccc5sccc5c4)n2n1)CCN3[C@H]1CCCNC1 [A-100] | < 10
14 | CCOc1ccc(Nc2c3c(nc4ccnn24)N(C2CCN(Cc4ccccc4)C2)CCC3)cc1 (stereo not shown) [B-016] | 10 to 50
15 | CCOc1ccc(Nc2c3c(nc4ccnn24)N(Cc2cccnc2)CCC3)cc1 [B-018] | 50 to 100
16 | CCOc1ccc(Nc2c3c(nc4ccnn24)N(C2CCCNC2)CCC3)cc1 (stereo not shown) [B-014] | < 10
17 | CCOc1ccc(Nc2c3c(nc4ccnn24)N([C@H]2CCCNC2)C(=O)C3)cc1 [D-001] | 10 to 50
18 | COC(=O)c1ccc(Nc2c3c(nc4ccnn24)N(C2CCCNC2)CC3)cc1 (stereo not shown) [A-099] | < 10
19 | CCOc1ccc(Nc2c3c(nc4ccnn24)N(CCN)CC3)cc1 [A-005] | < 10
20 | CCOc1ccc(Nc2c3c(nc4ccnn24)N(CCCN)CCC3)cc1 [B-015] | 10 to 50
21 | CCOc1ccc(Nc2c3c(nc4ccnn24)N(C2CCCC(N)C2)CC3)cc1 (stereo not shown) [A-003] | 10 to 50
22 | CCOc1ccc(Nc2c3c(nc4ccnn24)N(CC(C)(C)CN)CC3)cc1 [A-007] | 50 to 100

Second part, the compound after the results:

Row | IC50 [µM] | Structure (SMILES)
23 | < 10 | c1ccc(Nc2c3c(nc4ccnn24)N([C@H]2CCCNC2)CC3)cc1 [A-032]
24 | < 10 | CC(C)(C)CNc1c2c(nc3ccnn13)N([C@H]1CCCNC1)CC2 [A-026]
25 | < 10 | CNc1c2c(nc3ccnn13)N([C@H]1CCCNC1)CC2 [A-096]
26 | < 10 | c1cc2nc3c(c(Nc4ccc5cn[nH]c5c4)n2n1)CCN3[C@H]1CCCNC1 [A-058]
27 | < 10 | CCOc1ccc(Nc2c3c(nc4ccnn24)N([C@H]2CCCNC2)C(CO)C3)cc1 (stereo partly drawn) [A-024, (S)-{8-(4-ethoxyphenylamino)-5-piperidin-3-yl-6,7-dihydro-5H-1,4,5,8a-tetraaza-s-indacen-6-yl]methanol]
28 | < 10 | CCOc1ccc(Nc2c3c(nc4ccnn24)N([C@H]2CC[C@H](N)CC2)CCC3)cc1 [B-002, [5-(4-aminocyclohexyl)-5,6,7,8-tetrahydro-1,4,5,9a-tetraazacyclopenta[b]naphthalen-9-yl](4-ethoxyphenyl)amine]
29 | < 10 | c1cc2nc3c(c(NC4CCCC4)n2n1)CCN3[C@H]1CCCNC1 [A-027]
30 | 10 to 50 | CCOc1ccc(Nc2c3c(nc4ccnn24)N(C2CCN(CC)C2)CCC3)cc1 (stereo not shown) [B-022]
31 | < 10 | CCOc1ccc(Nc2c3c(nc4ccnn24)N(C2CCNCC2)CCC3)cc1 [B-017]
32 | < 10 | CCOc1ccc(Nc2c3c(nc4ccnn24)N([C@H]2CCCNC2)CCC3)cc1 [B-001]
33 | 50 to 100 | CCOc1ccc(Nc2c3c(nc4ccnn24)N(CCN)C(=O)C3)cc1 [D-003]
34 | 10 to 50 | CCOc1ccc(Nc2c3c(nc4ccnn24)N(C2CCN(Cc4ccccc4)C2)CC3)cc1 (stereo not shown) [A-010]
35 | < 10 | Nc1c2c(nc3ccnn13)N([C@H]1CCCNC1)CC2 [A-092, (S)-5-piperidin-3-yl-6,7-dihydro-5H-1,4,5,8a-tetraaza-s-indacen-8-ylamine]
36 | 50 to 100 | CCOc1ccc(Nc2c3c(nc4ccnn24)N(C2CCCC(N)C2)CCC3)cc1 (stereo not shown) [B-013]
37 | < 10 | c1ccc(CNc2c3c(nc4ccnn24)N([C@H]2CCCNC2)CC3)cc1 [A-025]
38 | < 10 | CCOc1ccc(Nc2c3c(nc4ccnn24)N(C2CCNC2)CC3)cc1 (stereo not shown) [A-013]
39 | < 10 | CCOc1ccc(Nc2c3ccn([C@H]4CCCNC4)c3nc3ccnn23)cc1 [F-001, (S)-(4-ethoxyphenyl)(5-piperidin-3-yl-5H-14,5,8a-tetraaza-s-indacen-8-yl)amine]
40 | 50 to 100 | CCOc1ccc(Nc2c3c(nc4ccnn24)N(CC2CCCNC2)CC3)cc1 (stereo not shown) [A-014]
41 | < 10 | CCOc1ccc(Nc2c3c(nc4ccnn24)N([C@H]2CCCNC2)CC=CC3)cc1 [G-001, (S)-(4-ethoxyphenyl)(5-piperidin-3-yl-6,9-dihydro-5H-1,4,5,10a-tetraazacyclohepta[f]inden-10-yl)amine]
42 | 10 to 50 | CCOc1ccc(Nc2c3c(nc4ccnn24)N([C@H]2CC[C@H](N)CC2)C(=O)C3)cc1 [D-006]
43 | < 10 | CCOc1ccc(Nc2c3c(nc4ccnn24)N(C2CCNCC2)CC3)cc1 [A-009]
44 | < 10 | CCOc1ccc(Nc2c3c(nc4ccnn24)N(C2CCNC2)CCC3)cc1 (stereo not shown) [B-021]
45 | < 10 | CCOc1ccc(Nc2c3c(nc4ccnn24)N(CCCN)CC3)cc1 [A-006]
46 | 50 to 100 | CCOc1ccc(Nc2c3c(nc4ccnn24)N(CCN(C)C)CCC3)cc1 [B-007]
47 | 50 to 100 | CCOc1ccc(Nc2c3c(nc4ccnn24)N(C[C@H]2CCCNC2)C(=O)C3)cc1 [D-002]
48 | < 10 | FC(F)(F)c1nc2cc(Nc3c4c(nc5ccnn35)N([C@H]3CCCNC3)CC4)ccc2[nH]1 [A-091]
49 | 10 to 50 | CCOc1ccc(Nc2c3c(nc4ccnn24)N(C2CCN(CC)C2)CC3)cc1 (stereo not shown) [A-012]
